# Results: the supplement of paper PMC13380429
# ± gives the standard deviation of the averaged measurements.
# How the values were obtained:
# Conditions in all cases: 72 h
# [1] = tested on: U2OS; assay: relative viability EC50 (midpoint between 100% and the lowest measured viability); higher = less toxic
# [2] = tested on: Vero E6; assay: as above
# [3] = tested on: Caco-2; assay: as above
# [4] = tested on: HepG2; assay: as above
# [5] = tested on: Calu-3; assay: as above
# [6] = tested on: U2OS; assay: drug sensitivity score (DSS) for viability; higher = more toxic; extreme values may be limits of the assay
# [7] = tested on: Vero E6; assay: as above
# [8] = tested on: Caco-2; assay: as above
# [9] = tested on: HepG2; assay: as above
# [10] = tested on: Calu-3; assay: as above
# [11] = tested on: U2OS; assay: cell viability relative to DMSO; higher = less toxic
# [12] = tested on: Vero E6; assay: as above
# [13] = tested on: Caco-2; assay: as above
# [14] = tested on: HepG2; assay: as above
# [15] = tested on: Calu-3; assay: as above
Compound,relative viability EC50 [1] [µM],relative viability EC50 [2] [µM],relative viability EC50 [3] [µM],relative viability EC50 [4] [µM],relative viability EC50 [5] [µM],drug sensitivity score [6],drug sensitivity score [7],drug sensitivity score [8],drug sensitivity score [9],drug sensitivity score [10],cell viability ([11]; 1 nM) [%],cell viability ([11]; 10 nM) [%],cell viability ([11]; 100 nM) [%],cell viability ([11]; 1000 nM) [%],cell viability ([11]; 10000 nM) [%],cell viability ([12]; 1 nM) [%],cell viability ([12]; 10 nM) [%],cell viability ([12]; 100 nM) [%],cell viability ([12]; 1000 nM) [%],cell viability ([12]; 10000 nM) [%],cell viability ([13]; 1 nM) [%],cell viability ([13]; 10 nM) [%],cell viability ([13]; 100 nM) [%],cell viability ([13]; 1000 nM) [%],cell viability ([13]; 10000 nM) [%],cell viability ([14]; 1 nM) [%],cell viability ([14]; 10 nM) [%],cell viability ([14]; 100 nM) [%],cell viability ([14]; 1000 nM) [%],cell viability ([14]; 10000 nM) [%],cell viability ([15]; 1 nM) [%],cell viability ([15]; 10 nM) [%],cell viability ([15]; 100 nM) [%],cell viability ([15]; 1000 nM) [%],cell viability ([15]; 10000 nM) [%]
CCCCOC(=O)c1ccc(N)cc1 [butamben],> 10,> 10,> 10,> 10,> 10,0,0.7,0,0,0,98.7,96.5,102,94.9,103,94.2,102,96.3,92.8,82.3,108,94,95.6,90.9,97.5,104,93.6,124,112,124,98.6,96.7,94.2,93.7,94.1
CN[C@@H]1[C@@H](O)[C@@H](O[C@@H]2[C@@H](O)[C@H](O[C@H]3OC(CN)=CC[C@H]3N)[C@@H](N)C[C@H]2N)OC[C@]1(C)O [Sisomicin (sulfate)],> 10,> 10,> 10,> 10,> 10,0,0,0,0,0,101 ± 0.64,102 ± 0.49,99.7 ± 0.99,105 ± 3.1,99.4 ± 0.71,107 ± 8.3,107 ± 1.6,105 ± 4.5,98.5 ± 1.6,104 ± 2.9,100 ± 6.2,100 ± 4.2,103 ± 2.8,100 ± 0.78,94.15 ± 0.49,108 ± 8.4,101 ± 4.7,107 ± 7.3,96.8 ± 1.3,98.1 ± 4.1,105 ± 7.6,101.8 ± 0.35,97.1 ± 0.28,101 ± 4.5,105 ± 5.2
Cc1cc(/C=C/c2ccc3cc(N(C)C)ccc3[n+]2C)c(C)n1-c1ccccc1 [pyrvinium-pamoate],1.15,1.56,0.834,0.745,1.16,10.6,8.4,11.1,11.9,9.9,107,106,103,60,3.8,106,97.4,100,78,10.6,107,93,102,46.9,13.3,104,110,98,42,9.6,105,101,99.3,63,9.3
CNCCN(C)Cc1c[nH]nc1-c1ccc(O[C@H]2C[C@H](OCCC3CCOCC3)C2)cc1,> 10,> 10,> 10,> 10,> 10,0,0,0,0,0,99.5,97.6,100,96.4,97,100,105,95.9,102,101,99.7,100,107,90.4,99.6,98,102,109,96.8,90.9,96.2,97.3,94.1,100,100
O=c1sn(-c2cccc3ccccc23)c(=O)n1Cc1ccccc1 [tideglusib],> 10,> 10,> 10,> 10,> 10,0,0,0,0,0,98,101,103,102,97,97,96.8,97,93.9,100,95.6,90.2,102,98.9,110,90.7,106,100,98.8,103,108,97.7,106,99,97.2
CN1CCN(C(c2ccccc2)c2ccccc2)CC1 [cyclizine],> 10,> 10,> 10,> 10,> 10,0,0,0,0,0,105,94,101,95.6,97.5,97.7,96.3,93.7,96,102,95.7,101,99.9,94.9,103,94.7,99.1,103,104,97.6,104,98.9,85.8,102,99.9
CC(C)N(CCCNC(=O)Nc1ccc(C(C)(C)C)cc1)C[C@H]1O[C@@H](n2ccc3c(N)ncnc32)[C@H](O)[C@@H]1O,> 10,> 10,> 10,> 10,> 10,0,0,0,0,0,94.1,100,92.9,102,101,94.3,97,97.4,99.9,99.5,99.7,97.2,95.2,86.5,103,104,105,107,91.5,111,96.3,106,92.4,102,108
CNC[C@H](O)c1cccc(O)c1 [phenylephrine],> 10,> 10,> 10,> 10,> 10,0,0,0,0,0,98.9,96.1,98.9,102,101,96.6,99.7,95.6,93.5,102,99.2,91,96.4,92.4,99.7,98.7,101,99.1,93.5,111,103,92.5,95.7,98.9,97.5
C[C@]12C=CC(=O)C=C1CC[C@@H]1[C@@H]2CC[C@]2(C)OC(=O)CC[C@@H]12 [Testolactone],> 10,> 10,> 10,> 10,> 10,0,0,0,0,0,95.8,98.2,95.4,102,91.8,98.5,91.3,94.9,88.1,96.8,94,97.1,87.1,91.1,93.8,66.7,103,93.1,94.1,111,98.5,97.3,101,99.5,105
CC(O)(C(=O)Nc1ccc(S(=O)(=O)c2ccccc2)cc1)C(F)(F)F (stereo not given),> 10,> 10,> 10,> 10,> 10,0,0,0,0,2.1,99.2,100,97.4,104,102,98.4,93.1,97.9,89.6,95.3,94.9,90.6,97,107,95.9,100,90.8,96.4,102,109,101,98.1,99.8,82.2,89.1
Cc1cc(C#N)cc(C)c1Oc1nc(Nc2ccc(C#N)cc2)nc(N)c1Br [etravirine],> 10,> 10,> 10,> 10,> 10,0,0,0,0,0,103,95.2,97.2,95.2,95.3,97.5,97.9,95.7,105,107,94,93.7,97.2,105,102,110,101,92.3,99.8,102,94.3,95.8,95.7,96.5,103
C/C(=C\C(=O)Nc1ccccc1C(=O)O)c1ccc2ccccc2c1 [BIBR-1532],> 10,> 10,> 10,> 10,> 10,0,0,0,0,0,93.8,96.9,95.5,93.3,103,105,99.9,97.5,103,105,94.1,100,103,98,95.8,97.6,98,94.9,110,118,101,102,98.2,108,98
C[C@H](CCC(=O)O)[C@H]1CC[C@H]2[C@@H]3CC[C@@H]4C[C@H](O)CC[C@]4(C)[C@H]3C[C@H](O)[C@]12C [deoxycholic-acid],> 10,> 10,> 10,> 10,> 10,0,0,0,0,0,96.8,99.2,98.7,99.8,98.2,99.5,103,102,106,101,102,97.5,98.5,105,90,105,112,90.9,102,97.5,103,93.9,103,102,102
O=C/C=C/c1ccccc1 [cinnamaldehyde],> 10,> 10,> 10,> 10,> 10,0,0,0,0,0,106,99.2,98.6,96.8,99.4,92.3,99.5,96.7,98.7,95.9,103,94.2,96.9,97.6,101,97.8,100,108,108,97.5,90.3,105,105,95.1,102
O=C(NCCN1CCCCC1)c1ccc(I)cc1 [N-[2-(piperidinylamino)ethyl]-4-iodobenzamide],> 10,> 10,> 10,> 10,> 10,0,0,0,0,0,103,97.5,97,91.3,95.5,101,99.6,96.5,99.3,93.4,96.4,99.6,105,92.1,91.2,103,91.8,103,99.1,91.3,101,89.4,94.6,92.7,116
Cc1ccc(C)c(OCCCC(C)(C)C(=O)O)c1 [gemfibrozil],> 10,> 10,> 10,> 10,> 10,0,0,0,0,0,104,101,104,99.1,102,98.4,101,96.5,100,95.9,102,107,106,93.8,101,98.2,99.9,102,106,104,104,104,109,93.1,105
O=C(O)c1cc(O)c2c(c1)C(=O)c1cccc(O)c1C2=O [rhein],> 10,> 10,> 10,> 10,> 10,0,0,0,0.2,0,103,98.4,99,98.2,102,98.7,92.7,95.5,99.1,99.2,100,102,97.6,95.7,98.1,110,95.5,106,93.3,88.6,90,96.6,106,98.5,111
O=C(c1ccc(C(=O)N2CCC(N3CCCC3)CC2)c(Nc2ccccc2)c1)N1CCC(N2CCCC2)CC1 [UNC1215],> 10,> 10,> 10,> 10,> 10,0,0,0,0,0,104,102,100,97.9,105,94,95.9,101,99.6,99.9,108,97.7,100,110,94.1,98.6,99.2,96.7,98,103,105,111,106,93.4,101
CC(=O)N(CC(O)CO)c1c(I)c(C(=O)NCC(O)CO)c(I)c(C(=O)NCC(O)CO)c1I (stereo not given) [iohexol],> 10,> 10,> 10,> 10,> 10,0,0,0,0,0,98 ± 4.5,99.2 ± 1.8,99.4 ± 2,99.9 ± 1.1,104.5 ± 0.14,96.2 ± 3.1,101 ± 2.2,98.7 ± 7.5,99.7 ± 2.1,106 ± 6.8,95.9 ± 4.7,101 ± 3,101 ± 2.3,106 ± 6.4,96.3 ± 6,96 ± 9.3,103 ± 4.3,99 ± 5.9,102 ± 11,91.7 ± 3,104 ± 4.5,95.5 ± 2.8,95.8 ± 1.3,104 ± 15,103.7 ± 0.99
COc1cc(C[C@H](C)[C@H](C)Cc2ccc3c(c2)OCO3)ccc1O [macelignan],> 10,> 10,> 10,> 10,> 10,0,0,0,3.3,0,98.5,99,94,101,91.5,100,106,98.9,95.4,101,87.3,102,93.9,96.6,87.3,98.4,103,92.1,81.1,86.3,99.3,102,102,101,103
O=C(O)Cc1cccnc1C(=O)O [homoquinolinic-acid],> 10,> 10,> 10,> 10,> 10,0,0,0,0,0,97.4,100,100,99.6,99.7,105,106,102,103,94,99.5,104,101,96.3,105,104,93.8,95.3,94,93.9,92.7,89.2,97.4,95.6,111
CCNC(=O)c1noc(-c2cc(C(C)C)c(O)cc2O)c1-c1ccc(CN2CCOCC2)cc1 [NVP-AUY922],0.012,0.0702,0.0149,0.0067,0.0281,34.8,19.8,25.1,38.6,20.5,93,57.9,3,3.5,1,104,106,47.1,26.6,25.6,100,77.1,30.3,28.2,31.4,103,27.5,1.2,0.8,1.2,84.2,83.9,46,37.3,29.6
